Results from US20230192895A1, “PHARMACOKINETIC & PHARMACODYNAMIC MODEL FOR DETERMINING EFFECTIVE DOSE OF ANTI-TICAGRELOR ANTIBODY” (PhaseBio Pharmaceuticals, Inc., priority 2021, published 2023).
Each block holds one molecule with its values, some of them ahead of it.

How the values were obtained:
[1] = test system: PB2452 binding to biotinylated ticagrelor; experiment: Selectivity of PB2452 by competition binding with PB2452 to biotinylated ticagrelor; set-up: species or system human
Text: The chemical starting point for the development of ticagrelor was adenosine triphosphate (ATP), and ticagrelor retains an adenosine-like core.

[2] = test system: P2Y12 reactivity units (PRU); experiment: animal or person
Text: where Base refers to the baseline (prior to administration of Ticagrelor) value. Emaxi, EC50i, and the Hill coefficient (γ) are parameters to be estimated. The same structural model was used for PRU, VASP, and LTA.
The Emax parameter relating TICA to PRU (as well as VASP and LTA) was fixed to 90%. […] It is anticipated that this parameter value would be large^13 so it was fixed at a large value. […] This value was chosen based on literature^9, 14. Finally, fm was set equal to 0.30.
For parameters that were to be estimated, most of the prior distributions were uninformative or weakly informative.

[3] = test system: P2Y12 reactivity units (PRU); details: fixed in model, not estimated; cited from earlier work
[4] = Final population PK/PD model: PK parameters of TICA, TAM, PB2452 and complexes; assay type: in vivo, human
Method: A diagram of the model considered is in FIG. 1. Ticagrelor is dosed orally and passes through 2 transit compartments prior to entering the central compartment. […] PB2452 is dosed IV, and directly enters the central compartment. PB2452 can also diffuse into a peripheral compartment. […] In the model, it is assumed that the complexes are cleared at the same rate as PB2452. Additional compartments for the complex to enter where TICA and TAM return to circulation while PB2452 is removed from the system is also included in the model.
The expected result would be an increase in PRI/LTA/VASP to baseline (pre-ticagrelor administration) levels. Baseline PRU/LTA/VASP were added in the models observed value from the data for each subject. An ETA term was added to allow for potential measurement error. […] Astrand et al. (2019).
(§1) The PK parameters associated with this model are in Table 2. […] In the PK/PD model, the parameters associated with the PK of PB2452 (that are not associated with the relationship between PB2452/TICA/TAM) were fixed to these values.
(§2) To achieve improved fit to the study data, multiple adjustments were made to the model. […] These updates led to significant improvements in the fit of the model to the data.
The final step in model development was addition of significant covariates. […] Based on the covariate plots for the final model with the covariates included, no other covariates were added.

[5] = Population PK model of PB2452 alone (two-compartment, Cohorts 1-3); assay type: in vivo, human
Method: Population PK and PK/PD analyses were carried out using NONMEM version 7.4, PDx-Pop version 5.2 and Intel Visual Fortran Compiler version 12 on Microsoft Windows 10 Professional.
The models described in the following sections are non-linear hierarchical models that were fit using Bayesian Markov Chain Monte-Carlo (MCMC) techniques. If θ and φj represent vectors of individual PK and PD parameters, respectively, then it was assumed that they follow distributions with population parameters Θ and Φ, respectively. The parameters Θ and Φ were then assigned prior distributions according to the prior information available. The Bayesian analysis involved the estimation of the joint distribution of all parameters conditional on the observed data: p(θ, φ, Θ, Φ|PK and PD data), where θ and φ denote collections of all individual specific PK and PD parameters, respectively. Generating random samples from the joint posterior distribution allows the marginal distribution of each parameter to be completely characterized. More details on Bayesian methods in general may be found in (Lunn, Best, Thomas, Wakefield, & Spiegelhalter, 2002).
The MU referencing technique was utilized in NONMEM (Bauer, 2019). In particular, MU_1 (for example) was set equal to THETA(1). Then a particular model parameter was set equal to EXP(MU_1+ETA(1)). So, THETA represents the population value of the parameter on the log-scale. This usually helps to improve the efficiency (speed of convergence, reduced autocorrelation) of the algorithms (MCMC, but also applies to other “advanced” algorithms available) utilized.
as §1

[6] = test system: metabolism of TICA to TAM; experiment: Final population PK/PD model: metabolism of TICA as a function of PB2452 concentration; assay type: in vivo, human; details: value is natural log of Emaxf
Text: as §2

[7] = test system: P2Y12 receptor-induced platelet aggregation and P2Y12 receptor signaling; experiment: Phase 1 trial: reversal of the antiplatelet effects of ticagrelor (PRU/LTA/VASP); assay type: in vivo, human
Method: This model was developed during the conduct of the first-in-human study and used to inform dosing decisions throughout the study. The model was then updated with final data from the trial and will be used to inform subsequent early-phase clinical trials being conducted.
The study had 10 cohorts of healthy volunteers.
Subjects in Cohorts 4-10 were pretreated with ticagrelor for 48 hours. The first dose of ticagrelor was an oral loading dose of 180 mg followed by 90 mg administered orally twice daily for 2 days.

[8] = read-out: Kd (affinity of PB2452 for TICA and TAM); fixed in model, chosen based on literature; cited from earlier work
[9] = 6 g IV bolus, then 6 g over 4 h, then 6 g over 12 h, study subjects pretreated with ticagrelor
[10] = cohorts 4, 5 and 6 (1, 3, 9 g PB2452 over 30 minutes)

Inhibition of PB2452 binding to biotinylated ticagrelor [1]: No inhibition
Molecule: Nc1ncnc2c1ncn2[C@@H]1O[C@H](COP(=O)(O)OP(=O)(O)O)[C@@H](O)[C@H]1O [ADP, adenosine diphosphate]

Molecule: Nc1ncnc2c1ncn2[C@@H]1O[C@H](COP(=O)(O)OP(=O)(O)OP(=O)(O)O)[C@@H](O)[C@H]1O [ATP, adenosine triphosphate]
Inhibition of PB2452 binding to biotinylated ticagrelor [1]: No inhibition

Molecule: CCCSc1nc(N[C@@H]2C[C@H]2c2ccc(F)c(F)c2)c2nnn([C@@H]3C[C@H](O)[C@@H](O)[C@H]3O)c2n1 [TAM]
THETA9 final estimate; Emax2 = EXP(THETA9), Emax for relating TAM to PRU ([2]; value is natural log of Emax2): 0.0181

Molecule: CCCSc1nc(N[C@@H]2C[C@H]2c2ccc(F)c(F)c2)c2nnn([C@@H]3C[C@H](OCCO)[C@@H](O)[C@H]3O)c2n1 [TICA, (1S,2S,3R,5S)-3-[7-{[(1R,2S)-2-(3,4-difluorophenyl)cyclopropyl]amino}-5-(propylthio)-3H-[1,2,3]triazolo[4,5-d]pyrimidin-3-yl]-5-(2-ydroxyethoxy)cyclopentane-1,2-diol]
Emax parameter relating TICA to PRU (as well as VASP and LTA) [3]: 90% | Range of uncomplexed TICA expected based on the model ([4]; model-based concentration): less than 2000 nmol/L | Metabolism for TICA to TAM corresponding to fm ([4]; when no PB2452 is present): about 23% | EC50 ([2]; Homo sapiens, read-out: EC50 (Emax model relating uncomplexed analyte to PD measure)): > 20000 nM | THETA1 final estimate; EC50 (nmol/L) = EXP(THETA1), EC50 for relating TICA to PRU ([2]; value is natural log of EC50 in nmol/L): 10.6

Inhibition of PB2452 binding to biotinylated ticagrelor [1]: No inhibition
Molecule: Nc1ncnc2c1ncn2[C@@H]1O[C@H](CO)[C@@H](O)[C@H]1O [adenosine]

Inhibition of PB2452 binding to biotinylated ticagrelor [1]: No inhibition
Molecule: CCCC(=O)Nc1ncnc2c1ncn2[C@@H]1O[C@@H]2COP(=O)(O)O[C@H]2[C@H]1OC(=O)CCC [bucladesine]

Inhibition of PB2452 binding to biotinylated ticagrelor [1]: No inhibition
Molecule: CSCCNc1nc(SCCC(F)(F)F)nc2c1ncn2[C@@H]1O[C@H](COP(=O)(O)OP(=O)(O)C(Cl)(Cl)P(=O)(O)O)[C@@H](O)[C@H]1O [cangrelor]

Inhibition of PB2452 binding to biotinylated ticagrelor [1]: No inhibition
Molecule: O=C1CCc2cc(OCCCCc3nnnn3C3CCCCC3)ccc2N1 [cilostazol]

Inhibition of PB2452 binding to biotinylated ticagrelor [1]: No inhibition
Molecule: NS(=O)(=O)c1cc2c(cc1Cl)NC(C1CC3C=CC1C3)NS2(=O)=O (stereo not shown) [cyclothiazide]

Molecule: CC1(C)C(C=C(Cl)Cl)C1C(=O)OC(C#N)c1ccc(F)c(Oc2ccccc2)c1 (stereo not shown) [cyfluthrin]
Inhibition of PB2452 binding to biotinylated ticagrelor [1]: No inhibition

Inhibition of PB2452 binding to biotinylated ticagrelor [1]: No inhibition
Molecule: CC(=O)NC[C@H]1CN(c2ccc(N3CCOCC3)c(F)c2)C(=O)O1 [linezolid]

Inhibition of PB2452 binding to biotinylated ticagrelor [1]: No inhibition
Molecule: CC[C@H](C)C(=O)O[C@H]1C[C@@H](C)C=C2C=C[C@H](C)[C@H](CC[C@@H]3C[C@@H](O)CC(=O)O3)[C@H]21 [lovastatin]

Inhibition of PB2452 binding to biotinylated ticagrelor [1]: No inhibition
Molecule: COC(=O)C1=C(C#N)NC(C)=C(C(=O)OC(C)C)C1c1cccc([N+](=O)[O-])c1 (stereo not shown) [nilvadipine]

Inhibition of PB2452 binding to biotinylated ticagrelor [1]: No inhibition
Molecule: CNC(=O)c1cnn(-c2nc(N)c3ncn([C@@H]4O[C@H](CO)[C@@H](O)[C@H]4O)c3n2)c1 [regadenoson]

B1: PB2452: recombinant human IgG1λ monoclonal Fab antibody fragment that binds specifically to ticagrelor and TAM (antibody, listed as Homo sapiens)
heavy: QVQLQESGAEVKKPGSSVRVSCKASGGTFDSYSIHWVRQAPGQGLEWMGGIIPAFGTLSSAQDFQARVTISADKSTSTAYMELSGLRSEDTAVYYCARGSFDYYFWSASHPPNDALAIWGQGTLVTVSSASTKGPSVFPLAPSSKSTSGGTAALGCLVKDYFPEPVTVSWNSGALTSGVHTFPAVLQSSGLYSLSSVVTVPSSSLGTQTYICNVNHKPSNTKVDKRVEPKSCDK
light: QSVVTQPPSVSAAPGQKVTISCSGSNSDIGNNYVSWYQQLPGTAPKLLIYDNNKRPSGIPDRFSGSKSGTSATLAITGLQAGDEADYYCGTWLYDRAVGLFGGGTKVTVLGQPKAAPSVTLFPPSSEELQANKATLVCLISDFYPGAVTVAWKADSSPVKAGVETTTPSKQSNNKYAASSYLSLTPEQWKSHRSYSCQVTHEGSTVEKTVAPTECS
modifications: PB2452 VH with CH1; PB2452 VL with CL
Central volume of distribution ([5]; IV, Cohorts 1-3): 2.86 L | Clearance ([5]; IV, Cohorts 1-3): 1.88 L/h | Half-life for the distribution phase ([5]; IV, Cohorts 1-3): 0.81 h | Half-life for the elimination phase ([5]; IV, Cohorts 1-3): 6.68 h | THETA3 final estimate; Q (L/hr) = EXP(THETA3) ([5]; value is natural log of Q in L/hr): −0.770 | THETA2 final estimate; V1 (L) = EXP(THETA2) ([5]; value is natural log of V1 in L): 1.05 | THETA4 final estimate; V2 (L) = EXP(THETA4) ([5]; value is natural log of V2 in L): 1.24 | THETA4 final estimate; Ktr (hr^−1) = EXP(THETA4 + THETA13*(LOG(WT) − 4.35)) ([4]; value is natural log of Ktr, rate at which PB2452-TICA and PB2452-TAM complexes move through the added compartments): −1.22 | THETA6 final estimate; Emaxf = EXP(THETA6), Emax for relating metabolism of TICA to PB2452 concentrations [6]: 2.98 | Time for which complete reversal was sustained [7, 9]: 20 to 24 h | Time from infusion onset to complete reversal of the antiplatelet effects of ticagrelor [7, 9]: ≤ 5 min | Effect of higher dose and prolonged infusion on PRU ([7]; cohort 7 and those that followed (18 g, bolus plus prolonged infusion)): prolonged the increase in PRU | Effect on PRU after cessation of infusion ([7]; cohort 7 and those that followed, despite dose escalation): unexpected loss of effect was observed post-cessation of the drug infusion | Duration of early effect on PRU before return to post-TICA levels [7, 10]: less than two | Early effect on PRU [7, 10]: the PRU values were increased close to values before TICA was administered | Kd [8]: 0.018 nM
